Source: publication PMC6941357, “An in vitro toolbox to accelerate anti-malarial drug discovery and development” (Malaria Journal, 2020)
Where two headings read alike, the source gives them in different places.

Columns and labels:
[1] = Bidirectional permeability across Caco-2 cell monolayers; details: human
Protocol: (§1) Bidirectional permeability was assessed across Caco-2 cell monolayers as described previously. Briefly, permeability experiments were performed using either aqueous transport buffer (pH 7.4 Hanks balanced salt solution containing 20 mM HEPES) or human plasma (Australian Red Cross Blood Service) in both the apical and basolateral chambers. […] The final DMSO concentration in the donor solution was 0.1% v/v.
(§2) Samples from the donor chamber were taken at the start and end of the experiment. […] Donor and acceptor samples were stored frozen at − 80 °C until analysis by LC–MS (Additional file 1: Table S2) with sample preparation as described previously. The mass balance and apparent permeability coefficient (Papp) were calculated as previously described.
(§3) Where human plasma was used as the transport medium, Papp values were calculated as shown above, with correction for the fraction unbound (fu) in the donor solution Cdonorinitial×fu with fu determined at a similar concentration to that used in the transport experiment. The apparent flux of lucifer yellow was based on an endpoint measurement assuming no lag time. The efflux ratio was calculated as the ratio of the mean B–A to A–B Papp values.

Caco-2 cell monolayers [2] = experiment: as above; details: matrix: pH 7.4 buffer
Protocol: as §1, §2, §3

Caco-2 cell monolayers [3] = details: cited from earlier work; for Literature ER: Caco-2, ref [33], [35] of Additional file 1; for Literature Papp: Caco-2 A-B, ref [33]–[35] of Additional file 1; for A–B Papp / B–A Papp: matrix: human plasma, corrected for fu
[4] = Plasma protein binding via rapid equilibrium dialysis (RED), 10% plasma; assay type: in vitro ADME, human; details: human, 10% pooled plasma (diluted 1:10), pH 7.4, RED, 10% plasma corrected for dilution; for fraction unbound at 6 h: 6 h dialysis; for fraction unbound at 24 h: presaturation of device and 24 h dialysis
Protocol: Pooled human plasma (n = 3–4 donors) was obtained by centrifugation of blood (collected by the Australian Red Cross Blood Service, Melbourne, Australia or the Volunteer Blood Donor Registry, Clinical Translation Centre, Walter & Eliza Hall Institute of Medical Research, Parkville, Australia), or sourcing pooled plasma directly from commercial sources (Innovative Research Inc, MI) and stored frozen at − 80 °C.
Plasma was diluted 1:10 with pH 7.4 phosphate buffer (prepared by mixing 0.1 M sodium dihydrogen phosphate and 0.1 M disodium hydrogen phosphate (both containing 0.04 M NaCl) to pH 7.4) and spiked with compound to achieve a total measured concentration of ~ 1000–3000 ng/mL. Diluted plasma was vortex mixed briefly and aliquots (n = 3–4) were transferred to RED (Thermo Fisher Scientific, Waltham, MA) units that were placed at 37 °C under ambient atmosphere on a plate shaker. […] At the end of the dialysis period, samples were removed from both the donor and dialysate chambers of the RED units. […] Fraction unbound values were calculated for each individual RED unit and the mean and SD calculated for n = 3–4 replicates.
Briefly, the RED device was exposed for two 30 min periods and one overnight period to fresh solutions of compound prepared in pH 7.4 buffer at approximately 10% of the total dialysis concentration. Following the preincubations, solutions were removed from the RED device and discarded. […] Samples were removed and analysed as described above.
For binding assessments using 10% plasma, the unbound fraction (fu) in neat plasma was calculated using the average values for Ctotal and Cunbound and Eq.

human plasma = details: methods UF, ED, EP or not described per compound, ref [6]–[22] of Additional file 1; cited from earlier work
[5] = Caco-2, pH 7.4, A–B Papp, matrix: pH 7.4 buffer
[6] = Caco-2, A–B Papp, matrix: human plasma, corrected for fu

Row | SMILES | Papp B→A ([1]; Caco-2, pH 7.4) | Papp A→B [1, 5] | A–B Papp (Caco-2 cell monolayers [2]) | fraction unbound at 6 h [4] | Literature fu (human plasma) | also measured
1 | C[C@H]1[C@H](OC(=O)CCC(=O)O)O[C@@H]2O[C@@]3(C)CC[C@H]4[C@H](C)CC[C@@H]1[C@@]24OO3 [Artesunate] | 2.8 ± 0.48 ×10⁻⁶ cm/s | 3.4 ×10⁻⁶ cm/s | 2.9 10^−6 cm/s | – | – | Literature ER (Caco-2 cell monolayers [3]): 1.2
2 | CCc1nc(N)nc(N)c1-c1ccc(Cl)cc1 [Pyrimethamine] | 59 ± 2.9 ×10⁻⁶ cm/s | – | – | 0.095 ± 0.001 | 0.088 | Papp A→B ([1]; Caco-2, pH 7.4): 60 ± 5.6 ×10⁻⁶ cm/s
3 | C[C@H]1[C@H](N2CCS(=O)(=O)CC2)O[C@@H]2O[C@@]3(C)CC[C@H]4[C@H](C)CC[C@@H]1[C@@]24OO3 [Artemisone] | 47 ± 1.7 ×10⁻⁶ cm/s | 58.8 ×10⁻⁶ cm/s | 64.5 10^−6 cm/s | – | – | efflux ratio ([1]; Caco-2, pH 7.4): 0.8; Literature ER (Caco-2 cell monolayers [3]): 0.8; Literature Papp (Caco-2 cell monolayers [3]): 59.6 ± 4.2 10-6 cm/sec
4 | CCCCN(CCCC)CCC(O)c1cc2c(Cl)cc(Cl)cc2c2cc(C(F)(F)F)ccc12 (centres unmarked) [Halofantrine] | – | – | – | – | – | fraction unbound at 24 h [4]: < 0.0001; A–B Papp (Caco-2 cell monolayers [3]): > 300 10^−6 cm/s; B–A Papp (Caco-2 cell monolayers [3]): > 300 10^−6 cm/s
5 | C[C@H]1[C@@H](O)O[C@@H]2O[C@@]3(C)CC[C@H]4[C@H](C)CC[C@@H]1[C@@]24OO3 [Dihydroartemisinin] | 49 ± 1.2 ×10⁻⁶ cm/s | 50 ± 2.3 ×10⁻⁶ cm/s | – | – | 0.092 | Literature Papp (Caco-2 cell monolayers [3]): 38.6 ± 5.0 10-6 cm/sec
6 | CC(C)(N)CNC(=O)C[C@H]1CC[C@]2(CC1)OO[C@]1(O2)C2CC3CC(C2)CC1C3 [OZ277, Arterolane] | – | – | – | 0.056 | – | Papp B→A ([1]; Caco-2): 70 ± 0.38 ×10⁻⁶ cm/s; Papp A→B [1, 6]: 42 ± 2.8 ×10⁻⁶ cm/s
7 | COc1ncnc(NS(=O)(=O)c2ccc(N)cc2)c1OC [Sulfadoxine] | 23 ± 2.8 ×10⁻⁶ cm/s | 15 ± 2.5 ×10⁻⁶ cm/s | – | 0.025 | 0.05-0.1 | –
8 | COc1cc(NC(C)CCCN)c2ncccc2c1 (centres unmarked) [Primaquine] | 34 ± 1.5 ×10⁻⁶ cm/s | – | – | – | 0.35-0.55 | Papp A→B ([1]; Caco-2, pH 7.4): 29 ± 4.5 ×10⁻⁶ cm/s
9 | C[C@H]1c2cccc(O)c2C(=O)C2=C(O)[C@]3(O)C(=O)C(C(N)=O)=C(O)[C@@H](N(C)C)[C@@H]3[C@@H](O)[C@@H]21 [Doxycyclin] | 4.2 ± 0.29 ×10⁻⁶ cm/s | < 5 ×10⁻⁶ cm/s | 3.4 ± 0.23 10^−6 cm/s | 0.23 ± 0.09 | 0.12 | –
10 | [H]/N=C(\N/C(=N/[H])Nc1ccc(Cl)cc1)NC(C)C [Proguanil] | 7.9 ± 0.51 ×10⁻⁶ cm/s | < 5 ×10⁻⁶ cm/s | 3.5 ± 0.75 10^−6 cm/s | – | 0.25 | –
11 | Cc1cc(Nc2ccc(S(F)(F)(F)(F)F)cc2)n2nc(C(C)(F)F)nc2n1 [DSM265] | 49 ± 5.1 ×10⁻⁶ cm/s | 52.4 ×10⁻⁶ cm/s | 69.7 10^−6 cm/s | 0.002 | – | fraction unbound at 24 h [4]: 0.0018 ± 0.0001
12 | CC1(C)N=C(N)N=C(N)N1c1ccc(Cl)cc1 [Cycloguanil] | 0.77 ± 0.05 ×10⁻⁶ cm/s | – | 1.2 ± 0.070 10^−6 cm/s | – | – | A–B Papp (Caco-2 cell monolayers [2]; listed as cycloguanil): < 5 10^−6 cm/s
13 | CC1(C)c2nc(-c3ccc(F)cc3)c(Nc3ccc(F)cc3)n2CCN1C(=O)CN [KAF156] | – | – | – | – | – | Papp B→A ([1]; Caco-2): 230 ± 17 ×10⁻⁶ cm/s; Papp A→B [1, 6]: 47 ± 7.6 ×10⁻⁶ cm/s
14 | N#Cc1cc(NC(=O)[C@H]2c3ccccc3C(=O)N(CC(F)(F)F)[C@@H]2c2cccnc2)ccc1F [SJ733] | 50 ± 2 ×10⁻⁶ cm/s | 14 ×10⁻⁶ cm/s | 13.4 10^−6 cm/s | 0.1 | – | fraction unbound at 24 h [4]: 0.085 ± 0.012
15 | CS(=O)(=O)c1ccc(-c2cnc(N)c(-c3ccc(C(F)(F)F)nc3)c2)cc1 [MMV048] | 53 ± 1.9 ×10⁻⁶ cm/s | 41 ± 2.1 ×10⁻⁶ cm/s | – | 0.11 ± 0.007 | – | –
16 | OC(c1cc(C(F)(F)F)nc2c(C(F)(F)F)cccc12)C1CCCCN1 (centres unmarked) [Mefloquine] | – | – | – | – | 0.02 | Literature ER (Caco-2 cell monolayers [3]): 0.7; Literature Papp (Caco-2 cell monolayers [3]): 9.9 ± 0.7 10-6 cm/sec; A–B Papp (Caco-2 cell monolayers [3]): 180 ± 20 10^−6 cm/s; B–A Papp (Caco-2 cell monolayers [3]): 150 ± 10 10^−6 cm/s
17 | CO[C@H]1O[C@@H]2O[C@@]3(C)CC[C@H]4[C@H](C)CC[C@@H]([C@H]1C)[C@@]24OO3 [Artemether] | 42 ± 5.6 ×10⁻⁶ cm/s | 39.1 ×10⁻⁶ cm/s | 46.3 10^−6 cm/s | – | 0.046 | fraction unbound at 24 h [4]: 0.066
